In patent US20230192623A1, “Indazole Derivatives” (Hoffmann-La Roche Inc., priority 2020, published 2023):

Molecular target: T1, human cGAS (residues 161-522) (Homo sapiens, UniProt Q8N884)
T1 construct: Recombinantly expressed purified human cGAS (residues 161-522) was used at 25nM; made in house
Test: Malachite Green assay to measure cGAS activity (coupled enzymatic assay, phosphate detection)
Format: biochemical
Details: recombinant purified human cGAS 25 nM; 80 μM ATP, 80 μM GTP, 100 nM ISD; 4 hour at RT; absorbance 620 nm
Method: Malachite Green Assay to Measure cGAS Activity
Compounds were tested for cGAS inhibition in a coupled enzymatic assay based on Phosphate detection by Malachite Green. Final assay conditions were 20 mM TRIS pH 7.5 (Applichem), 5 mM MgCl2 (Sigma) and 0.01% BSA (Sigma) supplemented with 80 μM ATP (Sigma), 80 μM GTP (Sigma) and 100 nM Interferon Stimulating DNA (ISD) (Microsynth). Recombinantly expressed purified human cGAS (residues 161-522) was used at 25nM.
All compounds were prepared as 10 mM stock solutions in DMSO and a 16 pt dilution series in DMSO with a dilution factor of 2.5 was prepared. 1 μL of DMSO dilution series was transferred to 32.3 μL reaction buffer, mixed by pipetting up/down, spun for 1 minute at 3000 rpm and was visually inspected for precipitation. 5 μL of 3-fold enzyme stock solution were transferred to an empty 384-well Black/Clear Flat Bottom Polystyrene NBS (Corning) rows 3-24. Rows 1-2 were filled with assay buffer. Plates were spun 10 seconds at 1000 rpm (164×g). 5 μL of compound intermediate dilution was added and mixed by pipetting up/down to rows 3-24. Rows 1-2 were filled with 3.1% DMSO assay buffer. Plates were spun 10 seconds at 1000 rpm (164×g). 5 μL 3-fold Nucleotide/DNA mix was added to all wells to start the reaction. Plates were spun 10 seconds at 1000 rpm (164×g) and incubated for 4 hour at room temperature (RT) in the dark. 5 μL 4U/mL PPase (Sigma) were added to all wells. Plates spun 10 seconds at 1000 rpm (164×g). 10 μL BioMol green Solution (Enzo Life Sciences) was added to all wells. Plates spun 10 seconds at 1000 rpm (164×g) and incubated 30 minutes at RT in the dark. Absorbance data was collected 620 nm on an EnVision Multilable Reader (Perkin Elmer) and the following measurement settings were used: excitation filter photometric was 620 nm; excitation from the top; measurement height was 1 mm; number of flashes was 30; number of flashes integrated was 1.
All plates are checked for abnormalities and outliers in the Blank Control (no protein, row 1) and the Neutral Control (no compound, row 2) are excluded using the 3*SD rule. Data was normalized to 0 and 100% by Blank and Neutral Control and each curve was fitted and judged using the 4 parameter logistic equation to determine the IC50 for cGAS inhibition.
Table 1 provides IC50 values (μM) for cGAS inhibition obtained for particular examples of the present invention as measured by the above-described assay.

T1 sequence (Q8N884 161-522): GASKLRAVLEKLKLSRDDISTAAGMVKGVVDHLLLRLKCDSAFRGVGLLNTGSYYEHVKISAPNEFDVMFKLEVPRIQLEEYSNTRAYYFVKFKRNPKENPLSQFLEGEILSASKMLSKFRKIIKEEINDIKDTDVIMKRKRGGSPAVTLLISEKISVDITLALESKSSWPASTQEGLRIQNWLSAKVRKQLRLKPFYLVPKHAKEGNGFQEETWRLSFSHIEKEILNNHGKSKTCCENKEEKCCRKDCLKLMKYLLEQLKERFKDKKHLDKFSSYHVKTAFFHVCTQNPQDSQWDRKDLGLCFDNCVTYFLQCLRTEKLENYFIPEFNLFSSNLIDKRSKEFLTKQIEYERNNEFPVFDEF

| SMILES | IC50 [nM] |
| --- | --- |
| Cc1ccc(-c2cc(C(=O)O)c3cn(Cc4cccc(Cl)c4)nc3c2)c(Cl)c1 [Example 3, 6-(2-Chloro-4-methylphenyl)-2-[(3-chlorophenyl)methyl]indazole-4-carboxylic acid] | 3180 |
| Cc1ccc(-c2cc(C(=O)O)c3cn(Cc4ccc(Cl)cc4)nc3c2)c(Cl)c1 [Example 4, 6-(2-Chloro-4-methylphenyl)-2-[(4-chlorophenyl)methyl]indazole-4-carboxylic acid] | 2760 |
| Cc1ccc(-c2cc(C(=O)O)c3cn(Cc4nc(C5CC5)no4)nc3c2)c(Cl)c1 [Example 5, 6-(2-Chloro-4-methylphenyl)-2-((3-cyclopropyl-1,2,4-oxadiazol-5-yl)methyl)indazole-4-carboxylic acid] | 2210 |
| Cc1ccc(-c2cc(C(=O)O)c3cn(Cc4cccnc4)nc3c2)c(Cl)c1 [Example 6, 6-(2-Chloro-4-methylphenyl)-2-(pyridin-3-ylmethyl)indazole-4-carboxylic acid] | 2930 |
| Cc1ccc(-c2cc(C(=O)O)c3cn(Cc4ccccn4)nc3c2)c(Cl)c1 [Example 7, 6-(2-Chloro-4-methylphenyl)-2-(pyridin-2-ylmethyl)indazole-4-carboxylic acid] | 2400 |
| Cc1ccc(-c2cc(C(=O)O)c3cn(Cc4nc(C)c(C)o4)nc3c2)c(Cl)c1 [Example 8, 6-(2-Chloro-4-methylphenyl)-2-((4,5-dimethyloxazol-2-yl)methyl)indazole-4-carboxylic acid] | 2740 |
| Cc1ccc(-c2cc(C(=O)O)c3cn(CCc4ccccc4)nc3c2)c(Cl)c1 [Example 11, 6-(2-Chloro-4-methylphenyl)-2-phenethyl-2H-indazole-4-carboxylic acid] | 2350 |
| Cc1cc(Cl)c(-c2cc(C(=O)O)c3cn[nH]c3c2)cc1F [Example 12, 6-(2-Chloro-5-fluoro-4-methylphenyl)-1H-indazole-4-carboxylic acid] | 4590 |
| Cc1ccc(-c2cc(C(=O)O)c3cn[nH]c3c2)c(Cl)c1 [Example 13, 6-(2-Chloro-4-methylphenyl)-1H-indazole-4-carboxylic acid] | 4460 |

The remaining compounds from weak to strong by IC50, led by results:

| IC50 [nM] | SMILES |
| --- | --- |
| 2200 | Cc1ccc(-c2cc(C(=O)O)c3cn(Cc4ccccc4Cl)nc3c2)c(Cl)c1 [Example 2, 6-(2-Chloro-4-methylphenyl)-2-[(2-chlorophenyl)methyl]indazole-4-carboxylic acid] |
| 1920 | Cc1ccc(-c2cc(C(=O)O)c3cn(CCN4CCN(C)CC4)nc3c2)c(Cl)c1 [Example 1, 6-(2-Chloro-4-methylphenyl)-2-(2-(4-methylpiperazin-1-yl)ethyl)indazole-4-carboxylic acid] |
| 1560 | Cc1ccc(-c2cc(C(=O)O)c3cn(CC(F)(F)F)nc3c2)c(Cl)c1 [Example 9, 6-(2-Chloro-4-methylphenyl)-2-(2,2,2-trifluoroethyl)-2H-indazole-4-carboxylic acid] |
| 1370 | Cc1ccc(-c2cc(C(=O)O)c3cn(Cc4ccccc4)nc3c2)c(Cl)c1 [Example 10, 2-Benzyl-6-(2-chloro-4-methylphenyl)-2H--indazole-4-carboxylic acid] |
